In patent publication US20130158070A1, “CONJUGATES OF POLYUNSATURATED FATTY ACIDS AND AMINE-CONTAINING COMPOUNDS AND USES THEREOF” (priority 2010, published 2013):
Where “and” joins values, the source holds several entries; their conditions need not be identical. Equal values may be shown once.

Experiments:
hERG channels = molecular target: T1, hERG channels (Homo sapiens, UniProt Q12809); assay: hERG channels expressed in Xenopus oocytes, two-electrode voltage clamp; assay type: cell-based; design: initial current / final current / remaining current / avarage (remaining current): unit not given here; conditions: for final current: at −130 mV; for final current / remaining current / initial current: individual oocytes; for avarage (remaining current): 5 oocytes; for initial current: at −130 mV after pre-pulse to +40 mV
T1 construct: expressed in transfected cells; host or cells: Xenopus laevis oocytes injected with hERG cRNA (pSP64 vector, SP6 promoter)
T1 sequence (Q12809 whole entry): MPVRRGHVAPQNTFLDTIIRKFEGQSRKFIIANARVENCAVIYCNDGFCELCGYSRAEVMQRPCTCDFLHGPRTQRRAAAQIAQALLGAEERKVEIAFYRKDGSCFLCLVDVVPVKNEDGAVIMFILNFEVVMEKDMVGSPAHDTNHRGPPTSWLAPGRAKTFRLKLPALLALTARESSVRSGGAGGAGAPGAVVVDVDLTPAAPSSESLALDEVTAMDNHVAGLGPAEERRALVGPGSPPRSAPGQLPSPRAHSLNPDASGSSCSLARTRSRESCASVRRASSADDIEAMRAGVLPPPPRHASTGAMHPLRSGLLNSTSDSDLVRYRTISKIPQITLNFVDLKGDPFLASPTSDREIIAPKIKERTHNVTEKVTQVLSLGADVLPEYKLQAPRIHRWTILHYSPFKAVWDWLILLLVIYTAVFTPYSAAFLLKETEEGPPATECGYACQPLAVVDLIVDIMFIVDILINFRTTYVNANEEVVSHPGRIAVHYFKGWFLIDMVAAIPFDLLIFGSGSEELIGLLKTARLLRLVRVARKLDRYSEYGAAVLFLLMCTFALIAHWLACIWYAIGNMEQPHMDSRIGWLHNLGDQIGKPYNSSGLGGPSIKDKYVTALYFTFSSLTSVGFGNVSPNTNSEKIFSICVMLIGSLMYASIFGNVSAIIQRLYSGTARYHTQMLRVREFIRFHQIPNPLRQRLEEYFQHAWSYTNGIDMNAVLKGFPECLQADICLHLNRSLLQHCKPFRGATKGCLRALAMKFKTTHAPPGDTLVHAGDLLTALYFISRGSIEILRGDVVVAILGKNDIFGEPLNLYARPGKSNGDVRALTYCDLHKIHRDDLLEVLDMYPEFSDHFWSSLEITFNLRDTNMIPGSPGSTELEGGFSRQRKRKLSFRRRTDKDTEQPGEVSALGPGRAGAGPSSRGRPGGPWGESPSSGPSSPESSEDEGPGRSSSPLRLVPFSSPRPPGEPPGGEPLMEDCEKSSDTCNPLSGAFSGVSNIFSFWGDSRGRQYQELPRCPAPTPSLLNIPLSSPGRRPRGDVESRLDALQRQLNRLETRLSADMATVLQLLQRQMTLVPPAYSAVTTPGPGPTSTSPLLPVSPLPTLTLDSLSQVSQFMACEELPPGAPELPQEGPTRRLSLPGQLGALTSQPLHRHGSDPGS
Procedure: The sensitivity of hERG channels to two compounds, MWL001 also termed in the application as MW001 or MWL-001 and MWL002 also termed MW002 or MWL-002, was tested using the Xenopus oocyte expression system and the two-electrode voltage clamp technique. Activity of the compounds was tested at a concentration of 15 μM both from the external and from the internal sides of the membrane.
Clones: hERG gene (gi|26051269) was cloned within pSP64 expression vector (Promega) downstream to a SP6 RNA polymerase promoter. cRNA was prepared following digestion with EcoR I.
Electrophysiology: Xenopus laevis oocytes were isolated, defolliculated and maintained at 17° C. in ND-91 solution (in mM): 91 NaCl, 2 KCl, 1.8 CaCl2, 1 MgCl2, and 5 HEPES, pH 7.5, supplemented with 100 U/ml penicillin, 100 μg/ml streptomycin and 50 μg/ml gentamycin. Oocytes were injected with 20 or 40 nl, containing 7-14 ng of hERG cRNA. Whole-cell currents were measured 2-3 days after injection by the two-electrode voltage clamp technique (TEVC), using a GeneClamp 500B amplifier (Axon Instruments). Data were filtered at 2 kHz and sampled at 5 kHz with Clampex 9.0 software (Axon Instruments). The pipette was filled with 3M KCl and the bath solution contained (in mM): 4 KCl, 96 NaCl, 1 MgCl2, 0.3 CaCl2, 5 HEPES, pH 7.4. For external application of the compounds, stock solutions of either MWL001 or MWL002 were dissolved in the bath solution to a final concentration of 15 μM. During the experiments, bath solution exchange rate was about 2 ml/minutes. At this rate, more than 95% of the bath solution is replaced within 30 seconds. For internal blockade measurements, oocytes were injected with 46 nl of diluted (0.274 mM) compound solutions to achieve a final concentration within the oocyte of 15 μM.
Internal application: Compounds were injected into the oocyte to achieve a final concentration of 15 μM. Injection was made during current measurements and results were collected before and for 5 minutes after the injection. Current levels were determined in 4 seconds intervals at −130 mV, following a pre-pulse to +40 mV (see, Table 4 and FIG. 3).
External application: MWL compounds were applied at 15 μM concentration in the bath solution and current levels were determined in 4 seconds intervals at −130 mV, following a pre-pulse to +40 mV, for 15 minutes (see, Table 4). In addition, measurements were made to determine channel behavior throughout the entire physiological voltage range.
Table 4 presents the data obtained for the effect of MWL compounds on expressed hERG channels in individual oocytes which were either incubated (external) or injected (internal) with MWL compounds. Currents were monitored for 15 or 5 minutes, respectively.

COX-2 = molecular target: T2, COX-2 (Homo sapiens, UniProt P35354); assay: COX-2 inhibition, enzyme immunoassay (EIA); assay type: biochemical; conditions: ratio of COX-1 IC50 to COX-2 IC50
T2 sequence (P35354 18-604): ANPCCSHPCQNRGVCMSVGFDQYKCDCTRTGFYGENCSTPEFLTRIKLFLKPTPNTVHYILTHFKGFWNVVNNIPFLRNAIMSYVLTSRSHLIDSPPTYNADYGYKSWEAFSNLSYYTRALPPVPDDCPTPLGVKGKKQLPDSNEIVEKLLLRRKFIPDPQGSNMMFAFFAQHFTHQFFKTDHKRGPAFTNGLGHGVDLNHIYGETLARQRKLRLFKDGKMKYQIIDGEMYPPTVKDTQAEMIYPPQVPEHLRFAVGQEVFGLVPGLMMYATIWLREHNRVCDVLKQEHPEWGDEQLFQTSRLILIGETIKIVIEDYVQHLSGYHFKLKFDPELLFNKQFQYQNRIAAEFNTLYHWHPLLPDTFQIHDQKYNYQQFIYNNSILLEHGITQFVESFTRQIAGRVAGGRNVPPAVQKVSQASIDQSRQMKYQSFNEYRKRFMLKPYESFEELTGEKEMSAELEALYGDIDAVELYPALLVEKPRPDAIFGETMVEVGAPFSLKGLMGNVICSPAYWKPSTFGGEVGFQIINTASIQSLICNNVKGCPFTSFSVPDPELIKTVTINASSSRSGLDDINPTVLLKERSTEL
Procedure: Exemplary conjugates as described herein were tested in vitro for inhibition of COX-1 and COX-2, using an enzyme immunoassay (EIA), as follows.
Cyclooxygenase catalyzes the first step in the biosynthesis of arachidonic acid (AA) to PGH2. PGF2α, produced from PGH2 by reduction with stannous chloride, is measured by enzyme immunoassay (ACETM competitive EIA).
Stock solutions of test compounds were dissolved in a minimum volume of DMSO. Briefly, to a series of supplied reaction buffer solutions (960 μl, 0.1M Tris-HCl pH 8.0 containing 5 mM EDTA and 2 mM phenol) with either COX-1 or COX-2 (10 μl) enzyme in the presence of heme (10 μl) were added 10 μl of various concentrations of test drug solutions (0.01, 0.1, 1, 10, 50, and 100 μM in a final volume of 1 ml). These solutions were incubated for a period of 5 minutes at 37° C. after which 10 μL of AA (100 μM) solution were added and the COX reaction was stopped by the addition of 50 μl of 1M HCl after 2 minutes. PGF2α, produced from PGH2 by reduction with stannous chloride was measured by enzyme immunoassay.
This assay is based on the competition between PGs and a PG-acetylcholinesterase conjugate (PG tracer) for a limited amount of PG antiserum. The amount of PG tracer that is able to bind to the PG antiserum is inversely proportional to the concentration of PGs in the wells since the concentration of PG tracer is held constant while the concentration of PGs varies. The concentration of the test compound causing 50% inhibition (IC50, μM) was calculated from the concentration-inhibition response curve (duplicate determinations).

[1] = external application 15 μM in bath, monitored 15 minutes
[2] = external application 15 μM, 15 minutes
[3] = external application, before exposure
[4] = internal application (injected) 15 μM, 5 minutes
[5] = internal application (injected) 15 μM, monitored 5 minutes
[6] = internal application, before injection

Row | SMILES | final current (hERG channels; [1]) | avarage (remaining current) (hERG channels; [2]) | remaining current (hERG channels; [2]) | initial current (hERG channels; [3]) | avarage (remaining current) (hERG channels; [4]) | remaining current (hERG channels; [4]) | final current (hERG channels; [5]) | initial current (hERG channels; [6]) | Ratio (COX ½) (COX-2) | effect on hERG channel currents (hERG channels; 15 μM, internal and external exposure)
1 | CCC=CCC=CCC=CCC=CCC=CCC=CCCC(=O)N1CC(O)CC1C(=O)O (stereo not shown) [MWL001] | −12.8 and −15.5 and −15.8 and −10.8 and −26.0 | 95.7 | 100.8 and 91.2 and 98.1 and 100.0 and 88.6 | −12.7 and −17.0 and −16.1 and −10.8 and −29.3 | 101.6 | 95.6 and 101.8 and 112.3 and 100.0 and 98.4 | −6.5 and −11.1 and −15.5 and −9.5 and −18.5 | −6.8 and −10.9 and −13.8 and −9.5 and −18.8 | 464.11 | –
2 | CC/C=C\C/C=C\C/C=C\C/C=C\C/C=C\C/C=C\CCC(=O)NCCS(=O)(=O)O [MWL002, N-docosa-4,7,10,13,16,19-hexaenoyl-taurine] | −7.1 and −5.0 and −7.2 and −18.0 and −9.0 | 108.2 | 91.6 and 109.9 and 120.0 and 102.9 and 116.9 | −7.8 and −4.6 and −6.0 and −17.5 and −7.7 | 106.9 | 109.6 and 103.2 and 101.8 and 107.5 and 112.7 | −13.7 and −6.5 and −11.5 and −7.2 and −8.0 | −12.5 and −6.3 and −11.3 and −6.7 and −7.1 | 27.86 | no sensitivity
